The source of these data is ChEMBL document CHEMBL3091398, “Anthranilic acid-based Thumb Pocket 2 HCV NS5B polymerase inhibitors with sub-micromolar potency in the cell-based replicon assay” (Bioorg Med Chem Lett, 2013).

The test system of one data set is Hepatitis C virus. The data set is described as follows: Antiviral activity against HCV genotype 1b by cell-based luciferase reporter gene assay. Type of data set: functional, organism-based, Hepacivirus hominis.
The nature of data set [1]: Inhibition of HCV genotype 1b NS5B delta21 polymerase. On the set-up: species or system Hepatitis C virus subtype 1b.
Data set [2] can be described thus: Dissociation constant, pKa of the compound. Type of data set: physicochemical.
The nature of data set [3]: Half life in rat liver microsomes at 2 uM. Type of data set: ADME.
Data set [4] can be described thus: Permeability across apical to basolateral side in human Caco2 cells. Type of data set: ADME, cell-based. The following applies: Caco-2, read-out: permeability.
A short description of data set [5]: Solubility of the compound at pH 2 after 24 hrs by shake-flask method. Type of data set: physicochemical. Conditions: buffer, pH 2, 24 h.
The nature of data set [6]: Lipophilicity, log D of the compound at pH 7.4. Type of data set: physicochemical. The following applies: buffer.
Data set [7] is described as follows: Half life in human liver microsomes at 2 uM. Type of data set: ADME.

Structures are written as SMILES.

Regarding `O=C(O)c1cc(Oc2ccccc2)ccc1NS(=O)(=O)c1ccc(Br)cc1F`, in the data set on Hepatitis C virus, the EC50 was greater than 30 µM. Further, half-maximal inhibition in data set [1] (IC50) was put at 0.34 µM.

Take `Cc1ccc(S(=O)(=O)Nc2cc(Oc3ccccc3)ccc2C(=O)O)cc1`: the concentration giving a half-maximal response (EC50) in the data set with Hepatitis C virus was greater than 30 µM. Besides, the half-inhibitory concentration (IC50) in data set [1] stood at 0.16 µM.

`O=C(O)c1ccc(Oc2ccccc2)cc1NS(=O)(=O)c1ccc(Br)cc1F` gave a 50% effective concentration (EC50) with Hepatitis C virus greater than 30 µM. Besides, in data set [1], 0.31 µM corresponded to half-maximal inhibition (IC50).

`O=C(O)c1ccc(Oc2ccccc2)cc1NS(=O)(=O)c1ccc(Br)s1` came in with an EC50 in the data set with Hepatitis C virus greater than 25 µM. This molecule showed an IC50 in data set [1] of 0.61 µM.

As for `Cc1ccc(S(=O)(=O)Nc2ccc(Oc3ccccc3)cc2C(=O)O)cc1`, the concentration for a half-maximal effect (EC50) with Hepatitis C virus is greater than 30 µM. Moreover, the half-maximal inhibitory concentration (IC50) in data set [1] was 0.22 µM.

For `CC(C)N(c1ccc(Oc2ccccc2C(F)(F)F)cc1C(=O)O)C(=O)[C@H]1CC[C@H](C)CC1`, the pKa in data set [2] was found to be 5.5. In data set [3], this molecule registered a half-life at 2 µM of 1.3 h. Further, the Papp A→B in data set [4] was found to be 15 ×10⁻⁶ cm/s. For the same molecule, the solubility in data set [5] was less than 0.1 µg/mL. In data set [6], this molecule registered a logD of 2.9. The molecule further displayed an IC50 in data set [1] of 0.19 µM.

As for `CC(C)N(c1ccc(Oc2ncccc2C(F)(F)F)cc1C(=O)O)C(=O)[C@H]1CC[C@H](C)CC1`, the figures for the half-life at 2 µM in data set [3] and in data set [7] were 1 h and 1.15 h, respectively. The same molecule came in with a solubility in data set [5] of less than 0.1 µg/mL. The same molecule yielded an IC50 in data set [1] of 0.08 µM.

For the molecule `CC(C)N(c1cc(Oc2ccccc2C(F)(F)F)ccc1C(=O)O)C(=O)[C@H]1CC[C@H](C)CC1`, the 50% effective concentration (EC50) in the data set on Hepatitis C virus is 4.5 µM. Also, inhibition in data set [1] was half-maximal at 1.3 µM (IC50).

`Cc1ccc(S(=O)(=O)Nc2ccc(OC3CCCC3)cc2C(=O)O)cc1` showed a 50% effective concentration (EC50) in the data set on Hepatitis C virus of 8.6 µM. In data set [1], this molecule showed a half-inhibitory concentration (IC50) of 0.21 µM.

With `Cc1ccc(Oc2ccc(C(=O)O)c(NS(=O)(=O)c3ccc(Br)s3)c2)cc1`, the IC50 in data set [1] turned out to be 1.9 µM.

In data set [1], `Cc1cccc(Oc2ccc(C(=O)O)c(NS(=O)(=O)c3ccc(Br)s3)c2)c1` returned a half-inhibitory concentration (IC50) of 1.1 µM.

For `Cc1ccccc1Oc1ccc(C(=O)O)c(NS(=O)(=O)c2ccc(Br)s2)c1`, the half-maximal inhibitory concentration (IC50) in data set [1] is 1.5 µM.

As to `CC(=O)Nc1ccc(Oc2ccc(C(=O)O)c(NS(=O)(=O)c3ccc(Br)s3)c2)cc1`, 2.9 µM corresponded to half-maximal inhibition in data set [1] (IC50).

Turning to `O=C(O)c1cccc(Oc2ccc(C(=O)O)c(NS(=O)(=O)c3ccc(Br)s3)c2)c1`, the IC50 in data set [1] was 1.4 µM.

As for `O=C(O)c1ccc(Oc2ccc(C(=O)O)c(NS(=O)(=O)c3ccc(Br)s3)c2)cc1`, in data set [1], it took 2.2 µM to reach half-maximal inhibition (IC50).

In turn, `O=C(O)c1ccc(Oc2ccccc2C(F)(F)F)cc1NS(=O)(=O)c1ccc(Br)s1` came in with an EC50 in the data set on Hepatitis C virus greater than 30 µM. In addition, half-maximal inhibition in data set [1] (IC50) required 3 µM.

`CC(C)N(C(=O)c1ccc(Br)cc1F)c1ccc(Oc2ccccc2)cc1C(=O)O` returned a concentration for a half-maximal effect (EC50) with Hepatitis C virus greater than 10 µM. Inhibition in data set [1] was half-maximal at 1.64 µM (IC50).

Molecule `CC(C)N(c1ccc(Oc2ccccc2)cc1C(=O)O)C(=O)[C@H]1CC[C@H](C)CC1` showed an EC50 in the data set with Hepatitis C virus of 5 µM. This molecule yielded a concentration for half-maximal inhibition (IC50) in data set [1] of 0.67 µM.

Turning to `CC[C@H]1CC[C@H](C(=O)N(c2ccc(Oc3ccccc3)cc2C(=O)O)C(C)C)CC1`, a half-maximal effect with Hepatitis C virus (EC50) was put at 25 µM. Further, in data set [1], the IC50 amounted to 1.3 µM.

The molecule `CC(C)N(c1ccc(Oc2ccccc2)cc1C(=O)O)C(=O)[C@H]1CC[C@H](C(F)(F)F)CC1` gave a 50% effective concentration (EC50) with Hepatitis C virus of 16 µM. In data set [1], this molecule returned an IC50 of 2 µM.

As for `CC(C)N(C(=O)c1ccc(Br)cc1F)c1cc(Oc2ccccc2)ccc1C(=O)O`, in the data set with Hepatitis C virus, the EC50 was greater than 10 µM. In data set [1], this molecule registered an IC50 of 1.4 µM.

For the molecule `CC(C)N(c1cc(Oc2ccccc2)ccc1C(=O)O)C(=O)[C@H]1CC[C@H](C)CC1`, the EC50 with Hepatitis C virus came to 11 µM. Moreover, in data set [1], the IC50 amounted to 0.74 µM.

Consider `CC[C@H]1CC[C@H](C(=O)N(c2cc(Oc3ccccc3)ccc2C(=O)O)C(C)C)CC1`, for which the EC50 in the data set with Hepatitis C virus was greater than 40 µM. The same molecule yielded an IC50 in data set [1] of 4.3 µM.

Molecule `CC(C)N(c1cc(Oc2ccccc2)ccc1C(=O)O)C(=O)[C@H]1CC[C@H](C(F)(F)F)CC1` yielded an EC50 with Hepatitis C virus of 16 µM. In data set [1], inhibition was half-maximal at 1.3 µM (IC50).

Consider `CC(C)N(c1ccc(OC2CCCC2)cc1C(=O)O)C(=O)[C@H]1CC[C@H](C)CC1`, for which, in the data set with Hepatitis C virus, the EC50 was 1 µM. This molecule also yielded an IC50 in data set [1] of 0.46 µM.

The molecule `CC(C)N(c1ccc(Oc2cccc(C(F)(F)F)c2)cc1C(=O)O)C(=O)[C@H]1CC[C@H](C)CC1` yielded a 50% effective concentration (EC50) in the data set on Hepatitis C virus of 6.3 µM. In data set [1], this molecule showed a 50% inhibitory concentration (IC50) of 0.47 µM.

The molecule `CC(C)N(c1ccc(Oc2ccccc2OC(F)(F)F)cc1C(=O)O)C(=O)[C@H]1CC[C@H](C)CC1` gave an EC50 with Hepatitis C virus of 2.8 µM. Moreover, half-maximal inhibition in data set [1] (IC50) required 0.74 µM.

The molecule `CC(C)N(c1ccc(Oc2ccccc2Br)cc1C(=O)O)C(=O)[C@H]1CC[C@H](C)CC1` had a half-maximal effective concentration (EC50) in the data set on Hepatitis C virus of 4.9 µM. Moreover, half-maximal inhibition in data set [1] (IC50) was put at 0.45 µM.

In the data set on Hepatitis C virus, `CC(C)N(c1ccc(Oc2ccccc2C2CC2)cc1C(=O)O)C(=O)[C@H]1CC[C@H](C)CC1` gave an EC50 of 4.3 µM. Half-maximal inhibition in data set [1] (IC50) required 0.33 µM.

Regarding `CC(C)N(c1ccc(Oc2ccccc2C(C)(F)F)cc1C(=O)O)C(=O)[C@H]1CC[C@H](C)CC1`, in the data set with Hepatitis C virus, the response was half-maximal at 0.62 µM (EC50). The molecule also returned a half-inhibitory concentration (IC50) in data set [1] of 0.3 µM.

As for `CC(C)N(c1ccc(Oc2ccccc2C(F)F)cc1C(=O)O)C(=O)[C@H]1CC[C@H](C)CC1`, the 50% effective concentration (EC50) in the data set with Hepatitis C virus was 1.1 µM. The molecule also returned an IC50 in data set [1] of 0.2 µM.

With `CC(C)N(c1ccc(Oc2ccncc2C(F)(F)F)cc1C(=O)O)C(=O)[C@H]1CC[C@H](C)CC1`, in the data set on Hepatitis C virus, the half-maximal effective concentration (EC50) amounted to 0.17 µM. The molecule further showed an IC50 in data set [1] of 0.19 µM.

On to `CC(C)N(c1cc(OC2CCCC2)ccc1C(=O)O)C(=O)[C@H]1CC[C@H](C)CC1`, for which the EC50 in the data set on Hepatitis C virus is greater than 50 µM. This molecule also registered a 50% inhibitory concentration (IC50) in data set [1] greater than 40 µM.

Regarding `Cc1ccc(Oc2ccc(NS(=O)(=O)c3ccc(C)cc3)c(C(=O)O)c2)cc1`, the 50% effective concentration (EC50) with Hepatitis C virus is greater than 30 µM. In data set [1], this molecule yielded a concentration for half-maximal inhibition (IC50) of 0.78 µM.

The molecule `Cc1ccc(S(=O)(=O)Nc2ccc(Oc3cccc(C)c3)cc2C(=O)O)cc1` yielded a 50% effective concentration (EC50) in the data set on Hepatitis C virus greater than 30 µM. Besides, the IC50 in data set [1] came out at 0.47 µM.

As for `Cc1ccc(S(=O)(=O)Nc2ccc(Oc3ccccc3C)cc2C(=O)O)cc1`, in the data set with Hepatitis C virus, the concentration for a half-maximal effect (EC50) is greater than 30 µM. The same molecule yielded an IC50 in data set [1] of 0.53 µM.

For `CC(=O)Nc1ccc(Oc2ccc(NS(=O)(=O)c3ccc(C)cc3)c(C(=O)O)c2)cc1`, in the data set on Hepatitis C virus, the EC50 was 30 µM. This molecule also had an IC50 in data set [1] of 0.29 µM.

In the data set on Hepatitis C virus, `Cc1ccc(S(=O)(=O)Nc2ccc(Oc3cccc(C(=O)O)c3)cc2C(=O)O)cc1` gave an EC50 greater than 30 µM. In data set [1], this molecule registered an IC50 of 0.33 µM.

Consider `Cc1ccc(S(=O)(=O)Nc2ccc(Oc3ccc(C(=O)O)cc3)cc2C(=O)O)cc1`, for which, in the data set with Hepatitis C virus, the EC50 is greater than 30 µM. This molecule returned an IC50 in data set [1] of 0.085 µM.

As to `Cc1ccc(S(=O)(=O)Nc2ccc(Oc3ccccc3C(F)(F)F)cc2C(=O)O)cc1`, in data set [7], the half-life at 2 µM worked out at 0.2 h. Also, the Papp A→B in data set [4] amounted to 3.6 ×10⁻⁶ cm/s. The same molecule returned an EC50 in the data set with Hepatitis C virus of 7.3 µM. Also, in data set [1], half-maximal inhibition (IC50) required 0.27 µM.

Take `Cc1ccc(S(=O)(=O)Nc2ccc(Oc3ccccc3OC(F)(F)F)cc2C(=O)O)cc1`: it took 7 µM to reach a half-maximal effect in the data set on Hepatitis C virus (EC50). In addition, the midpoint of inhibition in data set [1], the IC50, lay at 0.37 µM.
